From patent publication US20240382511A1, “NICOTINAMIDE MONONUCLEOTIDE DERIVATIVES AND USE THEREOF FOR THE TREATMENT OF HEART FAILURE WITH PRESERVED EJECTION FRACTION” (NUVAMID SA, priority 2021, published 2024)

What was measured:
Type in all cases: in vivo, hamster (Golden Syrian)
[1] = tested on: free choice fed hamsters (diet-induced NASH hamster model of HFpEF); assay: Biochemical analysis (glucose, plasma insulin, ALT/AST, NT pro-BNP) in diet-induced NASH hamster model of HFpEF
From the text: Animals. Male hamsters (Golden Syrian), 4-week-old at receipt, were acclimated at least 5 days before the beginning of the study. Control animals were fed with a chow diet with normal tap water. For diet-induced NASH model, animals were fed with a free choice diet consisting of (a) a chow diet with normal water and (b) a high fat/cholesterol diet with 10% fructose enriched tap water. Food and water intake have been measured once a week. Dosage regimen and test groups. Animals were divided into 5 groups: [table] The study was conducted over 20 weeks. Treatments were administered from week 15 until the end of the experiment (duration 5 weeks), once a day, per os, at a rate of 10 ml/kg. Water was used as vehicle. Vardenafil was used as reference compound. Biochemical analysis. After 14 and 20 weeks of diet, blood was collected through tail vein, saphenous vein or retro orbital sinus after a 6 h fasting period to measure respectively glucose, plasma insulin and ALT/AST. After 20 weeks of diet, blood was collected and centrifuged to obtain plasma which was used to measure NT pro-BNP in plasma. Data analysis. All graphs represent means±standard error of mean (sem). Statistical analysis has been performed using GraphPad Prism 5 software. Single comparisons were made using Student's unpaired t-test or Mann Whitney in case of significant variance. Multiple comparisons have been carried out with two-way ANOVA followed by post-hoc Bonferroni test or one-way ANOVA followed by post-hoc Dunnett or Kruskall-Wallis test in case of significant variance. For all tests, p<0.05 was considered significant.

[2] = tested on: free choice fed hamsters (diet-induced NASH hamster model of HFpEF); assay: Organ weights (heart, liver, lungs), normalized or not to tibia length, in diet-induced NASH hamster model of HFpEF; settings: normalized to tibia length; after 20 weeks of diet including 5 weeks of treatment per os (compound 001 600 mg/kg, vardenafil 10 mg/kg); FIG. 11
From the text: (§1) Animals. Male hamsters (Golden Syrian), 4-week-old at receipt, were acclimated at least 5 days before the beginning of the study. Control animals were fed with a chow diet with normal tap water. For diet-induced NASH model, animals were fed with a free choice diet consisting of (a) a chow diet with normal water and (b) a high fat/cholesterol diet with 10% fructose enriched tap water. Food and water intake have been measured once a week. Dosage regimen and test groups. Animals were divided into 5 groups: [table] The study was conducted over 20 weeks. Treatments were administered from week 15 until the end of the experiment (duration 5 weeks), once a day, per os, at a rate of 10 ml/kg. Water was used as vehicle. Vardenafil was used as reference compound. Data analysis. All graphs represent means±standard error of mean (sem). Statistical analysis has been performed using GraphPad Prism 5 software. Single comparisons were made using Student's unpaired t-test or Mann Whitney in case of significant variance. […] During 20 weeks of diet including 5 weeks under treatment with vehicle, compound 001, vardenafil or both, body weight, food and water intake were recorded once a week. Blood was collected at week 14 and week 20 to measure plasma insulin, glucose and ALT/AST, and NT-pro BNP level was evaluated at week 20. Echocardiographic studies were assessed at week 14 and week 20. […]

[3] = tested on: free choice fed hamsters (diet-induced NASH hamster model of HFpEF); assay: Echocardiography (left ventricular function and dimensions) in diet-induced NASH hamster model of HFpEF; settings: for cardiac parameters (overall conclusion): diet-induced NASH hamster model, end of 5-week treatment period
From the text: Animals. Male hamsters (Golden Syrian), 4-week-old at receipt, were acclimated at least 5 days before the beginning of the study. Control animals were fed with a chow diet with normal tap water. For diet-induced NASH model, animals were fed with a free choice diet consisting of (a) a chow diet with normal water and (b) a high fat/cholesterol diet with 10% fructose enriched tap water. Food and water intake have been measured once a week. Dosage regimen and test groups. Animals were divided into 5 groups: [table] The study was conducted over 20 weeks. Treatments were administered from week 15 until the end of the experiment (duration 5 weeks), once a day, per os, at a rate of 10 ml/kg. Water was used as vehicle. Vardenafil was used as reference compound. Echocardiography. Left ventricular function and dimensions were assessed 14 and 20 weeks after the start of diet using two-dimensional echocardiograph (VF16-5 probe, Siemens, Acuson NX3 Elite). Numeric images of the heart were obtained in parasternal long and short-axis views using or not time motion for systolic function and in apical four chambers view with doppler mode for diastolic function. Heart rate, left ventricular end-diastolic and end-systolic diameters and volumes, as well as posterior and anterior wall thicknesses in diastole and systole, mitral flow velocity (E and A waves), the isovolumic relaxation time (IVRT), and annular tissue velocity of the mitral valve (e′ and a′ peaks) were measured. Left ventricular ejection fraction, fractional shortening, E/A ratio and E/E′ ratio were then calculated. Data analysis. All graphs represent means±standard error of mean (sem). Statistical analysis has been performed using GraphPad Prism 5 software. Single comparisons were made using Student's unpaired t-test or Mann Whitney in case of significant variance. Multiple comparisons have been carried out with two-way ANOVA followed by post-hoc Bonferroni test or one-way ANOVA followed by post-hoc Dunnett or Kruskall-Wallis test in case of significant variance. For all tests, p<0.05 was considered significant.

[4] = tested on: free choice fed hamsters (diet-induced NASH hamster model of HFpEF); assay: Body weight, food and water intake in diet-induced NASH hamster model of HFpEF; settings: treatment once a day per os from week 15, 5 weeks (compound 001 600 mg/kg, vardenafil 10 mg/kg), FIG. 5
From the text: as §1

NC(=O)c1ccc[n+]([C@@H]2O[C@H](COP(=O)([O-])O)[C@@H](O)[C@H]2O)c1 [compound 001, nicotinamide mononucleotide]
plasma insulin levels ([1]; week 20, after 5 weeks of treatment per os (compound 001 600 mg/kg, vardenafil 10 mg/kg), FIG. 9C): tended to increase plasma insulin levels | HOMA-IR index ([1]; week 20, after 5 weeks of treatment per os (compound 001 600 mg/kg, vardenafil 10 mg/kg), FIG. 9E): tended to increase plasma insulin levels and HOMA-IR index | plasma AST ([1]; week 20, after 5 weeks of treatment per os, 600 mg/kg, FIG. 9B): tendency to restore plasma AST | lung oedema (difference between wet and dry lung weight) [2]: non significantly reduced | cardiac parameters (overall conclusion) [3]: improved most of cardiac parameters | cardiac parameters (overall conclusion) ([3]; listed as NMN): improve cardiac parameters | diastolic function ([3]; echocardiography after 20 weeks of diet including 5 weeks of treatment per os (compound 001 600 mg/kg, vardenafil 10 mg/kg)): improved diastolic function | E/A ratio ([3]; echocardiography after 20 weeks of diet including 5 weeks of treatment per os (compound 001 600 mg/kg, vardenafil 10 mg/kg), vs free choice vehicle, FIG. 8A): significant decrease in E/A ratio | E′/A′ ratio ([3]; echocardiography after 20 weeks of diet including 5 weeks of treatment per os (compound 001 600 mg/kg, vardenafil 10 mg/kg), vs free choice vehicle, FIG. 8B): increased E′/A′ ratio | E/E′ ratio ([3]; echocardiography after 20 weeks of diet including 5 weeks of treatment per os (compound 001 600 mg/kg, vardenafil 10 mg/kg), vs free choice vehicle, FIG. 8D): E/E′ ratio decreased | isovolumic relaxation time (IVRT) ([3]; echocardiography after 20 weeks of diet including 5 weeks of treatment per os (compound 001 600 mg/kg, vardenafil 10 mg/kg), vs free choice vehicle, FIG. 8E): increased to normal levels | body weight / body weight gain [4]: significant decrease in body weight
